This is an account of results in patent US5436243A, “Aminoanthraquinone derivatives to combat multidrug resistance” (priority 1993, dated 1995).

Structures are written as SMILES.

In data set [1] the test system is MCF7 Adr 10 human breast cancer cells. The experiment in a line: Time course of accumulation of anthraquinones in cells. It counts as cell-based. Particulars: 25 μM, 37° C., MCF7 Adr 10 cells. How it is done: METHOD: Near confluent monolayers of MCF7 ADR 10 were washed 2 times with Dulbecco's Phosphate Buffered Saline (DPBS) and 1 ml of Iscove's Modified Dulbecco's Medium (IMDM) was added to each well. The monolayers were treated with 25 μM 1b or 1c and incubated at 37° C. After incubating the samples for the times indicated in FIG. 1, the monolayers were washed three times with DPBS and detached using 1 ml of Trypsin-EDTA.An aliquot of the cell suspension was counted using a Coulter Counter and a 0.8 ml aliquot was extracted in a Bligh-Dyer extraction (Bligh et at., Can. J. Biochem. 31:911-916 (1959)). The absorbance of the lower chloroform phase was measured at 648 nm and 600 nm using a spectrophotometer. The amount of 1b or 1c present in the extract was quantitated from a standard curve performed in cell extracts. The data is expressed as nmol anthraquinone/10^6 cells.

Data set [2] concerns SKRC7 human renal cell line. In words: Vinblastine accumulation assay, SKRC7. It counts as cell-based. Particulars: 10 μM, 10 nM [3H] vinblastine. Here is the method: These cell lines are models of intrinsic resistance.
[^3 H] vinblastine was added to a final concentration of 10 nM and the cells were incubated for 2.5 hours. At this time, the cells were washed 3 times in ice cold PBS and lysed in buffer containing 0.1% Triton X-100.

Data set [3] can be described thus: [3H] VLB binding to MCF7 WT membrane vesicles. Particulars: MCF7 WT membrane vesicles. Set-up: species or system human. How it is done: METHOD: Membrane vesicles from sensitive and MDR MCF7 were prepared by nitrogen cavitation and isolated by centrifugation in discontinuous sucrose gradients. […] In the presence of 100 nM [^3 H] VLB and ATP, total and nonspecific binding of [^3 H] VLB (experimentally defined as binding in the presence of a 100 μM unlabeled VLB) was measured. Association of [^3 H] […] In contrast, association of [^3 H] […] VLB with MCF7 WT vesicles.

For the compound `O=C1c2ccccc2C(=O)c2c(NCCCN3CCOCC3)ccc(NCCCN3CCOCC3)c21` [Compound 1c, 1,4-bis-[[3'(4-morpholino)propyl]amino]anthraquinone], the “time of maximal accumulation of 1b and 1c” value in data set [1] was “about 2 hours”. Besides, in data set [2], the “vinblastine accumulation relative to verapamil” value was “comparable or superior to verapamil activity”. Also, the “effect on specific binding of [3H] VLB” value in data set [3] is “no effect”.
